According to ChEMBL document CHEMBL4308841, “Synthesis, in vitro antiproliferative activity, and kinase inhibitory effects of pyrazole-containing diarylureas and diarylamides” (Eur J Med Chem, 2018):

Tested on: SR
Assay: Growth inhibition of human SR cells assessed as cell growth at 0.1 uM incubated for 48 hrs by sulforhodamine B assay relative to control
Format: functional
Details: read-out: Activity

Row | SMILES | growth at 0.1 µM
1 | COc1cc(Cl)cc(-c2nn(-c3cccc(NC(=O)Nc4cccc(C(F)(F)F)c4)c3)cc2-c2ccncc2)c1 | 93%

Tested on: MDA-MB-468
Assay: Growth inhibition of human MDA-MB-468 cells incubated for 48 hrs by sulforhodamine B assay
Format: functional, cell-based
Details: MDA-MB-468, 48 h

Row | SMILES | IC50
2 | COc1cc(Cl)cc(-c2nn(-c3cccc(NC(=O)Nc4cccc(C(F)(F)F)c4)c3)cc2-c2ccncc2)c1 | 1050 nM

Same assay, conditions: MDA-MB-468, 48 h, read-out: GI50

Row | SMILES | GI50
3 | COc1cc(Cl)cc(-c2nn(-c3cccc(NC(=O)Nc4cccc(C(F)(F)F)c4)c3)cc2-c2ccncc2)c1 | 1050 nM

Same assay, conditions: MDA-MB-468, 48 h, read-out: LC50 (the source's name)

Row | SMILES | CC50
4 | COc1cc(Cl)cc(-c2nn(-c3cccc(NC(=O)Nc4cccc(C(F)(F)F)c4)c3)cc2-c2ccncc2)c1 | > 100 µM

Same assay, conditions: MDA-MB-468, 48 h, read-out: TGI

Row | SMILES | TGI
5 | COc1cc(Cl)cc(-c2nn(-c3cccc(NC(=O)Nc4cccc(C(F)(F)F)c4)c3)cc2-c2ccncc2)c1 | 49.9 µM

Same assay, conditions: MDA-MB-468, 48 h, read-out: pGI50 (converted)

Row | SMILES | GI50
6 | COc1cc(Cl)cc(-c2nn(-c3cccc(NC(=O)Nc4cccc(C(F)(F)F)c4)c3)cc2-c2ccncc2)c1 | 1050 nM

Same assay, conditions: MDA-MB-468, 48 h, read-out: pLC50 (the source's name) (converted)

Row | SMILES | CC50
7 | COc1cc(Cl)cc(-c2nn(-c3cccc(NC(=O)Nc4cccc(C(F)(F)F)c4)c3)cc2-c2ccncc2)c1 | > 100 µM

Same assay, conditions: MDA-MB-468, 48 h, read-out: pTGI (converted)

Row | SMILES | TGI
8 | COc1cc(Cl)cc(-c2nn(-c3cccc(NC(=O)Nc4cccc(C(F)(F)F)c4)c3)cc2-c2ccncc2)c1 | 5.01 µM

Tested on: SK-OV-3
Assay: Growth inhibition of human SKOV3 cells assessed as cell growth at 100 uM incubated for 48 hrs by sulforhodamine B assay relative to control
Format: functional
Details: SK-OV-3, 48 h, read-out: Activity

Row | SMILES | growth at 100 µM
9 | COc1cc(Cl)cc(-c2nn(-c3cccc(NC(=O)Nc4cccc(C(F)(F)F)c4)c3)cc2-c2ccncc2)c1 | -3%

Tested on: UACC-257
Assay: Growth inhibition of human UACC257 cells assessed as cell growth at 0.01 uM incubated for 48 hrs by sulforhodamine B assay relative to control
Format: functional
Details: UACC-257, 48 h, read-out: Activity

Row | SMILES | growth at 0.01 µM
10 | COc1cc(Cl)cc(-c2nn(-c3cccc(NC(=O)Nc4cccc(C(F)(F)F)c4)c3)cc2-c2ccncc2)c1 | 90%

Tested on: IGROV-1
Assay: Growth inhibition of human IGROV1 cells assessed as cell growth at 0.01 uM incubated for 48 hrs by sulforhodamine B assay relative to control
Format: functional
Details: IGROV-1, 48 h, read-out: Activity

Row | SMILES | growth at 0.01 µM
11 | COc1cc(Cl)cc(-c2nn(-c3cccc(NC(=O)Nc4cccc(C(F)(F)F)c4)c3)cc2-c2ccncc2)c1 | 106%

Tested on: SK-MEL-2
Assay: Growth inhibition of human SK-MEL-2 cells assessed as cell growth at 1 uM incubated for 48 hrs by sulforhodamine B assay relative to control
Format: functional
Details: SK-MEL-2, 48 h, read-out: Activity

Row | SMILES | growth at 1 µM
12 | COc1cc(Cl)cc(-c2nn(-c3cccc(NC(=O)Nc4cccc(C(F)(F)F)c4)c3)cc2-c2ccncc2)c1 | 85%

Tested on: CAKI-1
Assay: Growth inhibition of human Caki1 cells assessed as cell growth at 1 uM incubated for 48 hrs by sulforhodamine B assay relative to control
Format: functional
Details: CAKI-1, 48 h, read-out: Activity

Row | SMILES | growth at 1 µM
13 | COc1cc(Cl)cc(-c2nn(-c3cccc(NC(=O)Nc4cccc(C(F)(F)F)c4)c3)cc2-c2ccncc2)c1 | 57%

Tested on: SN12C
Assay: Growth inhibition of human SN12C cells assessed as cell growth at 100 uM incubated for 48 hrs by sulforhodamine B assay relative to control
Format: functional
Details: read-out: Activity

Row | SMILES | growth at 100 µM
14 | COc1cc(Cl)cc(-c2nn(-c3cccc(NC(=O)Nc4cccc(C(F)(F)F)c4)c3)cc2-c2ccncc2)c1 | -20%

Tested on: HCT-116
Assay: Growth inhibition of human HCT116 cells assessed as cell growth at 0.01 uM incubated for 48 hrs by sulforhodamine B assay relative to control
Format: functional
Details: HCT-116, 48 h, read-out: Activity

Row | SMILES | growth at 0.01 µM
15 | COc1cc(Cl)cc(-c2nn(-c3cccc(NC(=O)Nc4cccc(C(F)(F)F)c4)c3)cc2-c2ccncc2)c1 | 101%

Tested on: LOX IMVI
Assay: Growth inhibition of human LOXIMVI cells assessed as cell growth at 100 uM incubated for 48 hrs by sulforhodamine B assay relative to control
Format: functional
Details: read-out: Activity

Row | SMILES | growth at 100 µM
16 | COc1cc(Cl)cc(-c2nn(-c3cccc(NC(=O)Nc4cccc(C(F)(F)F)c4)c3)cc2-c2ccncc2)c1 | -53%

Tested on: COLO 205
Assay: Growth inhibition of human COLO205 cells assessed as cell growth at 0.1 uM incubated for 48 hrs by sulforhodamine B assay relative to control
Format: functional
Details: COLO 205, 48 h, read-out: Activity

Row | SMILES | growth at 0.1 µM
17 | COc1cc(Cl)cc(-c2nn(-c3cccc(NC(=O)Nc4cccc(C(F)(F)F)c4)c3)cc2-c2ccncc2)c1 | 101%

Tested on: T47D
Assay: Growth inhibition of human T47D cells assessed as cell growth at 1 uM incubated for 48 hrs by sulforhodamine B assay relative to control
Format: functional
Details: read-out: Activity

Row | SMILES | growth at 1 µM
18 | COc1cc(Cl)cc(-c2nn(-c3cccc(NC(=O)Nc4cccc(C(F)(F)F)c4)c3)cc2-c2ccncc2)c1 | 58%

Tested on: CCRF-CEM
Assay: Growth inhibition of human CCRF-CEM cells assessed as cell growth at 0.1 uM incubated for 48 hrs by sulforhodamine B assay relative to control
Format: functional
Details: read-out: Activity

Row | SMILES | growth at 0.1 µM
19 | COc1cc(Cl)cc(-c2nn(-c3cccc(NC(=O)Nc4cccc(C(F)(F)F)c4)c3)cc2-c2ccncc2)c1 | 97%

Tested on: NCI-H460
Assay: Growth inhibition of human NCI-H460 cells assessed as cell growth at 1 uM incubated for 48 hrs by sulforhodamine B assay relative to control
Format: functional
Details: NCI-H460, 48 h, read-out: Activity

Row | SMILES | growth at 1 µM
20 | COc1cc(Cl)cc(-c2nn(-c3cccc(NC(=O)Nc4cccc(C(F)(F)F)c4)c3)cc2-c2ccncc2)c1 | 45%

Tested on: ACHN
Assay: Growth inhibition of human ACHN cells assessed as cell growth at 100 uM incubated for 48 hrs by sulforhodamine B assay relative to control
Format: functional
Details: read-out: Activity

Row | SMILES | growth at 100 µM
21 | COc1cc(Cl)cc(-c2nn(-c3cccc(NC(=O)Nc4cccc(C(F)(F)F)c4)c3)cc2-c2ccncc2)c1 | -9%

Tested on: NCI-H226
Assay: Growth inhibition of human NCI-H226 cells assessed as cell growth at 1 uM incubated for 48 hrs by sulforhodamine B assay relative to control
Format: functional
Details: NCI-H226, 48 h, read-out: Activity

Row | SMILES | growth at 1 µM
22 | COc1cc(Cl)cc(-c2nn(-c3cccc(NC(=O)Nc4cccc(C(F)(F)F)c4)c3)cc2-c2ccncc2)c1 | 77%

Tested on: MDA-MB-435
Assay: Growth inhibition of human MDA-MB-435 cells incubated for 48 hrs by sulforhodamine B assay
Format: functional, cell-based
Details: MDA-MB-435, 48 h, read-out: GI50

Row | SMILES | GI50
23 | COc1cc(Cl)cc(-c2nn(-c3cccc(NC(=O)Nc4cccc(C(F)(F)F)c4)c3)cc2-c2ccncc2)c1 | 1740 nM

Same assay, conditions: MDA-MB-435, 48 h, read-out: LC50

Row | SMILES | LC50
24 | COc1cc(Cl)cc(-c2nn(-c3cccc(NC(=O)Nc4cccc(C(F)(F)F)c4)c3)cc2-c2ccncc2)c1 | 83.7 µM
